Where a name gives a salt, the structure may show the parent alone.
Columns and labels:
[1] = target: T1, human OX1 receptor (Homo sapiens, UniProt O43613); assay: Measurement of orexin receptor antagonistic activity (calcium fluorescence, FLIPRtetra); type: cell-based; conditions: CHO, 10 μM test compound; CHO cells expressing human OX1 receptor; OX-A 1 nM; read-out: Human Orexin1 receptor inhibition (at 10 μM)
T1 construct: expressed in transfected cells; host or cells: CHO cells
T1 sequence (O43613 1-425): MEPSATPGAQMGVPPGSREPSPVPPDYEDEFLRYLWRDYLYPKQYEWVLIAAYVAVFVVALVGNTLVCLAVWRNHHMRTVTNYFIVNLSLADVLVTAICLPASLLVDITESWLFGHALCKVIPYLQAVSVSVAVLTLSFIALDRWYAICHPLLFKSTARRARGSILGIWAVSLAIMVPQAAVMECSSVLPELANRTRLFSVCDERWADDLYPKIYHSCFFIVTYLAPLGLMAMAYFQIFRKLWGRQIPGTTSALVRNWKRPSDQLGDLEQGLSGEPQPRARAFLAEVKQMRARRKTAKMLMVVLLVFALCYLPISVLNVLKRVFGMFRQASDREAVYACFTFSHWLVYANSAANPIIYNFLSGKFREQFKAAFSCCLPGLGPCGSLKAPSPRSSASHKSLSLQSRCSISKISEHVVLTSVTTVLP
In short: (§1)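 CHO cells expressing human OX1 or OX2 receptor, cultured one day. Compound in HBSS/20 mM HEPES/0.1% BSA added, then orexin-A at 1 nM final (OX1) or 0.3 nM final (OX2); calcium fluorescence by FLIPRtetra every 1 s for 2 min.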

[2] = target: T2, human OX2 receptor (Homo sapiens, UniProt O43614); assay: as above; type: cell-based; conditions: CHO, 10 μM test compound; CHO cells expressing human OX2 receptor; OX-A 0.3 nM; read-out: Human Orexin2 receptor inhibition (at 10 μM)
T2 construct: expressed in transfected cells; host or cells: CHO cells
T2 sequence (O43614 1-444): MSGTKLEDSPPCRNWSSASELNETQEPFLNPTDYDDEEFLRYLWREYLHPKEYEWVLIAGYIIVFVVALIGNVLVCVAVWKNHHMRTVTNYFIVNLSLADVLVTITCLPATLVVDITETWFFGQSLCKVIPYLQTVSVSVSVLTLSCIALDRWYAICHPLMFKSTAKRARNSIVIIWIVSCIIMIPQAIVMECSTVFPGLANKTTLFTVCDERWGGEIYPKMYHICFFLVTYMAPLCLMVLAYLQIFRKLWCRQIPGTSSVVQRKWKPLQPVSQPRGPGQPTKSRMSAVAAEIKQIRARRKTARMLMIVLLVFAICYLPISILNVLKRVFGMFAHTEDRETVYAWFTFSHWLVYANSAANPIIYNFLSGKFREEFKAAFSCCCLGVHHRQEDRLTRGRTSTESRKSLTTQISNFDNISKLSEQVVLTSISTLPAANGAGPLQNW
In short: as §1

inhibition at 10 µM [1]	inhibition at 10 µM [2]	Compound
42%	102%	Cc1nc(C(F)F)cc(N2CCN(C(=O)c3cc(F)ccc3-n3nccn3)C[C@H](C)O2)n1 [Example 100, ((7S)-2-(6-(difluoromethyl)-2-methylpyrimidin-4-yl)-7-methyl-1,2,5-oxadiazepan-5-yl)(5-fluoro-2-(2H-1,2,3-triazol-2-yl)phenyl)methanone]
50%	101%	Cc1nc(N2CCN(C(=O)c3cc(F)ccc3-n3nccn3)C[C@H](C)O2)cc(C(F)(F)F)n1 [Example 101, (5-fluoro-2-(2H-1,2,3-triazol-2-yl)phenyl)((7S)-7-methyl-2-(2-methyl-6-(trifluoromethyl)pyrimidin-4-yl)-1,2,5-oxadiazepan-5-yl)methanone]
90%	100%	Cc1nc(C(F)F)cc(N2CCN(C(=O)c3cc(Cl)ccc3-n3nccn3)C[C@H](C)O2)n1 [Example 103, (5-chloro-2-(2H-1,2,3-triazol-2-yl)phenyl)((7S)-2-(6-(difluoromethyl)-2-methylpyrimidin-4-yl)-7-methyl-1,2,5-oxadiazepan-5-yl)methanone]
104%	96%	Cc1cc(N2CCN(C(=O)c3cc(Cl)ccc3-n3nccn3)C[C@H](C)O2)nc(C(F)(F)F)n1 [Example 104, (5-chloro-2-(2H-1,2,3-triazol-2-yl)phenyl)((7S)-7-methyl-2-(6-methyl-2-(trifluoromethyl)pyrimidin-4-yl)-1,2,5-oxadiazepan-5-yl)methanone]
96%	98%	C[C@H]1CN(C(=O)c2cc(Cl)ccc2-n2nccn2)CCN(c2cc(C(F)F)nc(C3CC3)n2)O1 [Example 105, (5-chloro-2-(2H-1,2,3-triazol-2-yl)phenyl)((7S)-2-(2-cyclopropyl-6-(difluoromethyl)pyrimidin-4-yl)-7-methyl-1,2,5-oxadiazepan-5-yl)methanone]
38%	99%	Cc1cc(N2CCN(C(=O)c3cc(F)c(F)cc3-n3nccn3)C[C@H](C)O2)nc(C)n1 [Example 106, (4,5-difluoro-2-(2H-1,2,3-triazol-2-yl)phenyl)((7S)-2-(2,6-dimethylpyrimidin-4-yl)-7-methyl-1,2,5-oxadiazepan-5-yl)methanone]
37%	94%	Cc1nc(N2CCN(C(=O)c3cc(F)c(F)cc3-n3nccn3)C[C@H](C)O2)cc(C(F)(F)F)n1 [Example 107, (4,5-difluoro-2-(2H-1,2,3-triazol-2-yl)phenyl)((7S)-7-methyl-2-(2-methyl-6-(trifluoromethyl)pyrimidin-4-yl)-1,2,5-oxadiazepan-5-yl)methanone]
100%	101%	Cc1cc(N2CCN(C(=O)c3cc(F)c(F)cc3-n3nccn3)C[C@H](C)O2)nc(C(F)(F)F)n1 [Example 108, (4,5-difluoro-2-(2H-1,2,3-triazol-2-yl)phenyl)((7S)-7-methyl-2-(6-methyl-2-(trifluoromethyl)pyrimidin-4-yl)-1,2,5-oxadiazepan-5-yl)methanone]
85%	101%	Cc1cc(N2CCN(C(=O)c3ccccc3-c3ncccn3)C[C@H](C)O2)nc(C)n1 [Example 109, ((7S)-2-(2,6-dimethylpyrimidin-4-yl)-7-methyl-1,2,5-oxadiazepan-5-yl)(2-(pyrimidin-2-yl)phenyl)methanone]
79%	95%	Cc1cc(N2CCN(C(=O)c3ccccc3-c3nc(C)cs3)C[C@H](C)O2)nc(C)n1 [Example 110, ((7S)-2-(2,6-dimethylpyrimidin-4-yl)-7-methyl-1,2,5-oxadiazepan-5-yl)(2-(4-methyl-1,3-thiazol-2-yl)phenyl)methanone]
9%	100%	Cc1nc(N2CCN(C(=O)c3ccccc3-c3nc(C)no3)C[C@H](C)O2)cc(C(F)(F)F)n1 [Example 111, ((7S)-7-methyl-2-(2-methyl-6-(trifluoromethyl)pyrimidin-4-yl)-1,2,5-oxadiazepan-5-yl)(2-(3-methyl-1,2,4-oxadiazol-5-yl)phenyl)methanone]
90%	101%	CCC1CN(C(=O)c2ccccc2-n2nccn2)CCN(c2cc(C)nc(C)n2)O1 (stereo not shown) [Example 112, (2-(2,6-dimethylpyrimidin-4-yl)-7-ethyl-1,2,5-oxadiazepan-5-yl)(2-(2H-1,2,3-triazol-2-yl)phenyl)methanone]
16%	102%	COCC1CN(C(=O)c2ccccc2-n2nccn2)CCN(c2cc(C)nc(C)n2)O1 (stereo not shown) [Example 113, (2-(2,6-dimethylpyrimidin-4-yl)-7-(methoxymethyl)-1,2,5-oxadiazepan-5-yl)(2-(2H-1,2,3-triazol-2-yl)phenyl)methanone]
69%	96%	Cc1ccc(-n2nccn2)c(C(=O)N2CCN(c3nc(C)cc(C)n3)OC[C@H]2C)c1 [Example 114, ((6R)-2-(4,6-dimethylpyrimidin-2-yl)-6-methyl-1,2,5-oxadiazepan-5-yl) (5-methyl-2-(2H-1,2,3-triazol-2-yl)phenyl)methanone]
103%	100%	Cc1ccc(-n2nccn2)c(C(=O)N2CCN(c3nc(C)cc(C#N)n3)OC[C@H]2C)c1 [Example 115, 6-methyl-2-((6R)-6-methyl-5-(5-methyl-2-(2H-1,2,3-triazol-2-yl)benzoyl)-1,2,5-oxadiazepan-2-yl)pyrimidine-4-carbonitrile]
101%	100%	Cc1ccc(-n2nccn2)c(C(=O)N2CCN(c3ncc4sccc4n3)OC[C@H]2C)c1 [Example 116, ((6R)-6-methyl-2-(thieno[3,2-d]pyrimidin-2-yl)-1,2,5-oxadiazepan-5-yl) (5-methyl-2-(2H-1,2,3-triazol-2-yl)phenyl)methanone]
77%	100%	COc1nc(N2CCN(C(=O)c3cc(C)ccc3-n3nccn3)[C@H](C)CO2)ncc1F [Example 117, ((6R)-2-(5-fluoro-4-methoxypyrimidin-2-yl)-6-methyl-1,2,5-oxadiazepan-5-yl)(5-methyl-2-(2H-1,2,3-triazol-2-yl)phenyl)methanone hydrochloride]
48%	92%	Cc1ccc(-n2nccn2)c(C(=O)N2CCN(c3ccc(F)cn3)OC[C@H]2C)c1 [Example 119, ((6R)-2-(5-fluoropyridin-2-yl)-6-methyl-1,2,5-oxadiazepan-5-yl)(5-methyl-2-(2H-1,2,3-triazol-2-yl)phenyl)methanone]
83%	100%	COc1cccc(N2CCN(C(=O)c3cc(C)ccc3-n3nccn3)[C@H](C)CO2)c1 [Example 120, ((6R)-2-(3-methoxyphenyl)-6-methyl-1,2,5-oxadiazepan-5-yl) (5-methyl-2-(2H-1,2,3-triazol-2-yl)phenyl)methanone]
92%	94%	Cc1ccc(-n2nccn2)c(C(=O)N2CCN(c3ccc(Cl)cn3)OC[C@H]2C)c1 [Example 121, ((6R)-2-(5-chloropyridin-2-yl)-6-methyl-1,2,5-oxadiazepan-5-yl) (5-methyl-2-(2H-1,2,3-triazol-2-yl)phenyl)methanone]
11%	69%	Cc1ccc(-n2nccn2)c(C(=O)N2CCN(c3ncccc3Cl)OC[C@H]2C)c1 [Example 122, ((6R)-2-(3-chloropyridin-2-yl)-6-methyl-1,2,5-oxadiazepan-5-yl) (5-methyl-2-(2H-1,2,3-triazol-2-yl)phenyl)methanone]
23%	74%	COc1cccnc1N1CCN(C(=O)c2cc(C)ccc2-n2nccn2)[C@H](C)CO1 [Example 123, ((6R)-2-(3-methoxypyridin-2-yl)-6-methyl-1,2,5-oxadiazepan-5-yl) (5-methyl-2-(2H-1,2,3-triazol-2-yl)phenyl)methanone]

Compound	inhibition at 10 µM [1]	inhibition at 10 µM [2]
Cc1ccc(-n2nccn2)c(C(=O)N2CCN(c3nc4cc(Cl)ccc4o3)OC[C@H]2C)c1 [Example 118, ((6R)-2-(5-chloro-1,3-benzoxazol-2-yl)-6-methyl-1,2,5-oxadiazepan-5-yl)(5-methyl-2-(2H-1,2,3-triazol-2-yl)phenyl)methanone]	101%	102%

— US10131653B2, “Heterocyclic compound” (TAKEDA PHARMACEUTICAL COMPANY LIMITED, priority 2015, dated 2018)
